{"source": "BindingDB's records for doi:10.1124/jpet.102.046318", "about": "(Georgetown University, 2003)", "key": {"[1]": {"target": "Norepinephrine transporter (Rattus norvegicus, UniProt Q9JIA2)"}, "[2]": {"target": "Sodium-dependent serotonin transporter (Rattus norvegicus, UniProt P31652)", "sequence (P31652 whole entry)": "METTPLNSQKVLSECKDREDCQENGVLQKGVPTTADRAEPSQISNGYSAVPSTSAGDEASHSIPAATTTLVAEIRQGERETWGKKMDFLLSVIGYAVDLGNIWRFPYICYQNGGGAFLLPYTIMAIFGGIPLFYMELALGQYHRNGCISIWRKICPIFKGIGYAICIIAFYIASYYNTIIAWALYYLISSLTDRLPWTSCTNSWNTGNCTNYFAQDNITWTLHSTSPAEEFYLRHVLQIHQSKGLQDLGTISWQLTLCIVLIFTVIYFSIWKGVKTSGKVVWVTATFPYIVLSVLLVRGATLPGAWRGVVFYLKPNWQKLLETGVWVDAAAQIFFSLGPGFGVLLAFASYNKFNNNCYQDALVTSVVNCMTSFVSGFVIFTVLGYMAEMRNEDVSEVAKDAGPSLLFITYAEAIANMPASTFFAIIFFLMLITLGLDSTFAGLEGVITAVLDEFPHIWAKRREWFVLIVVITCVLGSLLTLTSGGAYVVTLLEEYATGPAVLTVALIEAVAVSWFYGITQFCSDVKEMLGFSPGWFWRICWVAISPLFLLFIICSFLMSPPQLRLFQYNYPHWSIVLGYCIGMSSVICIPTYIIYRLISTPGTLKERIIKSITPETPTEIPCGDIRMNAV"}, "[3]": {"target": "Sodium-dependent dopamine transporter (Rattus norvegicus, UniProt P23977)", "sequence (P23977 whole entry)": "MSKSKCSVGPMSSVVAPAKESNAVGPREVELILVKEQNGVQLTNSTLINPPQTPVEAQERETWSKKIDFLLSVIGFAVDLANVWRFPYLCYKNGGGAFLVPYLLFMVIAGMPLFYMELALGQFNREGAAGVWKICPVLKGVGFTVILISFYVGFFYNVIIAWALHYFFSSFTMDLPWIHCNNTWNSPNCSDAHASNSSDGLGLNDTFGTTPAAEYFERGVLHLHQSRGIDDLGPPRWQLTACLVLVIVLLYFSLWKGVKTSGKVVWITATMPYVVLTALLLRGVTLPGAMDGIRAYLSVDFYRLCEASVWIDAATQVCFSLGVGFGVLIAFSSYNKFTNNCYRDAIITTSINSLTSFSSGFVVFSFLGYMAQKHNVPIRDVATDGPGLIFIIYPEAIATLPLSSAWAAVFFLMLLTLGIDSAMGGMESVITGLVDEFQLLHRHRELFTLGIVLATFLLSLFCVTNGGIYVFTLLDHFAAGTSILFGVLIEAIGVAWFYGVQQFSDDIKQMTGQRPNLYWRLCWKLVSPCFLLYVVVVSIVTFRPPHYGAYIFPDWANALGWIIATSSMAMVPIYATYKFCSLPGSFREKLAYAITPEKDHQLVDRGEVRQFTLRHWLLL"}}, "data": [{"smiles": "CN1CCC(c2ccc(Cl)cc2)[C@H](C(=O)O)C1", "note": "(stereo not given in full) [CAS_8268]", "values": [{"measurement": "Ki", "setting": "[1]", "value": 90, "unit": "nM"}, {"measurement": "Ki", "setting": "[2]", "value": 5900, "unit": "nM"}, {"measurement": "Ki", "setting": "[3]", "value": 276, "unit": "nM"}]}, {"smiles": "CN1CCC(c2ccc(Cl)cc2)[C@@H](C(=O)O)C1", "note": "(stereo partly drawn) [cis-CPCA, -]", "values": [{"measurement": "Ki", "setting": "[1]", "value": 98, "unit": "nM"}, {"measurement": "Ki", "setting": "[3]", "value": 67, "unit": "nM"}]}]}
